Source: publication PMC10197068 (Bioconjugate Chemistry, 2023)
Where “and” joins values, the source holds several entries; their conditions need not be identical. Identical values can stand only once.

How the values were obtained:
[1] = tested on: G1 (Na+) monomeric HTelo G4 DNA, AGGG(TTAGGG)3; assay: CD melting with G1 (Na+); assay type: binding, human; conditions: CD melting at 295 nm, 25 to 95 °C at 2 °C/min; 100 mM NaCl, 10 mM Li cacodylate, pH 7.3; [G4 unit] 6 μM, [salphen unit] 12 μM
Method: (§1) Next, the DNA binding properties of the monomeric and dimeric compounds were studied. […] The following notation is used: […] The CD melting experiments were conducted solely with Na^+ stabilized DNA, which forms an antiparallel topology in solution (cf., in the presence of K^+ a mixture of topologies is observed). During the assay the temperature was increased from 25 to 95 °C upon which the intensity of signals with negative ellipticity at ca. 265 nm and positive ellipticity at ca. 295 (characteristic of an antiparallel G4 structure) decreased-see Figure 4a. This indicates the expected unfolding of the G4 DNA structure as the temperature increases. The changes in intensity were subsequently used to produce the corresponding melting curves (Figure 4b) for each sequence in the absence and presence of the different compounds under study. From these curves, the ΔTm values for the different sequences and compounds were determined, and the results are summarized in Figure 4c (see Supplementary Table 1 for values). […] G-Quadruplex oligonucleotides were purchased from Eurogentec (Belgium), and CT-DNA was purchased from Sigma-Aldrich. […] Prior to use, the DNA stock solutions were annealed by heating at 95 °C for 5 min and then cooling to room temperature overnight. Experiments were carried out on a Jasco J-810 spectrophotometer using a 1 cm quartz cuvette. Temperature was controlled using a Peltier module. The signal at 295 nm was monitored as temperature was increased for 25 to 95 °C at a rate of 2 °C/min. CD melting experiments were carried out with the appropriate G4 DNA (100 mM NaCl, 10 mM Li cacodylate, pH 7.3). Sample preparation was carried out by combining stock solutions of ligand and DNA in the appropriate buffer. […] Melting temperatures were obtained by curve fitting in Graphpad Prism 8. The data was normalized and fitted to a variable slope Hill equation, and the melting temperature was defined at the temperature at which y = 0.5.

[2] = tested on: G2T1 (Na+) dimeric HTelo G4 DNA, AGGG(TTAGGG)7; assay: CD melting with G2T1 (Na+); assay type: binding, human; conditions: for ΔTm G2T1 (Na+): CD melting at 295 nm, 25 to 95 °C at 2 °C/min, 100 mM NaCl, 10 mM Li cacodylate, pH 7.3, [G4 unit] 6 μM (3 μM dimeric sequence), [salphen unit] 12 μM
Method: as §1

[3] = tested on: G2T6 (Na+) dimeric HTelo G4 DNA, AGGG(TTAGGG)3(TTA)5(TTAGGG)4; assay: CD melting with G2T6 (Na+); assay type: binding, human; conditions: for ΔTm G2T6 (Na+): CD melting at 295 nm, 25 to 95 °C at 2 °C/min, 100 mM NaCl, 10 mM Li cacodylate, pH 7.3, [G4 unit] 6 μM (3 μM dimeric sequence), [salphen unit] 12 μM
Method: as §1

[4] = tested on: G1 (K+) monomeric HTelo G4 DNA; assay: Emission titration with G1 (K+); assay type: binding, human; conditions: Table S2, unit not given, ligand 2 μM, 100 mM KCl, 10 mM Li cacodylate, pH 7.3, exc 440 nm, em 590 nm, triplicate
Method: (§2) Next, emission titrations were carried out with the emissive Pt^II compounds M2 and D3–8 and G4/duplex DNA to obtain association constants. Both Na^+ and K^+ stabilized monomeric and dimeric G4 DNA were investigated. Additionally, titrations were carried out with CT-DNA to evaluate the selectivity for G4 versus duplex DNA. Figure 5 summarizes the obtained results (see Figures S24–S37 and Table S2 for a full set of titration data). First discussed are the experiments conducted in Na^+ buffer, in which the G4 topology formed is antiparallel.[41] […] As discussed previously, this could potentially be caused by a “sandwiched” binding mode in which the metal-salphen complex sits between two G-quadruplex units. For dimeric metal-salphen complexes D3–8, however, there are several differences when compared to the CD melting studies. […] Upon increasing the linker length to a two-amino-acid sequence (RR and KK for compounds D4 and D5, respectively), larger Ka values were obtained with minimal change to the pattern of selectivity. […] Increasing the linker length to an eight-amino-acid sequence (RRRRRRRR) led to a similar stabilization of G2T6, while G1 stabilization increased.
(§3) G-Quadruplex oligonucleotides were purchased from Eurogentec (Belgium), and CT-DNA was purchased from Sigma-Aldrich. Stock solutions were prepared via dilution in the appropriate buffers to concentrations of 300–400 μM determined by UV–vis measurements in which increasing amounts of DNA were added to a cuvette and the absorbance at 260 nm recorded using an Agilent Cary UV 60 spectrometer. Prior to use, the DNA stock solutions were annealed by heating at 95 °C for 5 min and then cooling to room temperature overnight.
(§4) Experiments were carried out using a BMG Clariostar Microplate reader with Greiner Bio-One half-volume (100 μL/well) plates. Excitation was carried out at 440 nm and recorded from 500 to 700 nm in addition to a matrix scan at 590 nm. Titrations were carried out using G1, G2T1, and G2T6 (Na^+) G4 DNA (100 mM NaCl, 10 mM Li cacodylate, pH 7.3); G1, G2T1, and G2T6 (K^+) G4 DNA (100 mM KCl, 10 mM Li cacodylate, pH 7.3); and CT-DNA (100 mM KCl, 10 mM Li cacodylate, pH 7.3). Ligand concentration was kept constant at 2 μM, and the following DNA equivalents were tested: 0, 0.1, 0.2, 0.3, 0.4, 0.5, 0.75, 1, 1.5, 2, 3, and 5 (for CT-DNA 10× base pair equivalents were used, i.e., 1 to 50 BPE). Sample preparation was carried out by preparing stock solutions of double concentration ligand (4 μM) and DNA in the appropriate buffer, before 50 μL of each was added to the appropriate well and mixed. Experiments were conducted in triplicate and binding constants were obtained by curve fitting in Graphpad Prism 8 using eq 1.[46] [drawing 1] 1
(§5) Fluorescence response (y) was fitted against DNA concentration (x); R is the machine response, K is the association constant of ligand and DNA, L is the concentration of ligand, and n is the number of binding sites per DNA. The values of L and n were varied so that that the L was equal to the number of salphen units and n was equal to the number of G4 faces per DNA. The matrix scan results were used to plot the titration curves and 500–700 nm scan results were used to confirm that expected curve shapes and shifts were observed.

[5] = tested on: G2T1 (K+) dimeric HTelo G4 DNA; assay: Emission titration with G2T1 (K+); assay type: binding, human; conditions: Table S2, unit not given, ligand 2 μM, 100 mM KCl, 10 mM Li cacodylate, pH 7.3, exc 440 nm, em 590 nm, triplicate
Method: as §2, §3, §4, §5

[6] = tested on: G2T6 (K+) dimeric HTelo G4 DNA; assay: Emission titration with G2T6 (K+); assay type: binding, human; conditions: Table S2, unit not given, ligand 2 μM, 100 mM KCl, 10 mM Li cacodylate, pH 7.3, exc 440 nm, em 590 nm, triplicate
Method: as §2, §3, §4, §5

[7] = tested on: G1 (Na+) monomeric HTelo G4 DNA; assay: Emission titration with G1 (Na+); assay type: binding, human; conditions: Table S2, unit not given, ligand 2 μM, 100 mM NaCl, 10 mM Li cacodylate, pH 7.3, exc 440 nm, em 590 nm, triplicate
Method: as §2, §3, §4, §5

[8] = tested on: G2T1 (Na+) dimeric HTelo G4 DNA; assay: Emission titration with G2T1 (Na+); assay type: binding, human; conditions: Table S2, unit not given, ligand 2 μM, 100 mM NaCl, 10 mM Li cacodylate, pH 7.3, exc 440 nm, em 590 nm, triplicate
Method: as §2, §3, §4, §5

[9] = tested on: G2T6 (Na+) dimeric HTelo G4 DNA; assay: Emission titration with G2T6 (Na+); assay type: binding, human; conditions: Table S2, unit not given, ligand 2 μM, 100 mM NaCl, 10 mM Li cacodylate, pH 7.3, exc 440 nm, em 590 nm, triplicate
Method: as §2, §3, §4, §5

[10] = tested on: CT-DNA (duplex DNA); assay: Emission titration with duplex DNA; assay type: binding; conditions: for Ka for duplex DNA: CT-DNA up to 50 base pair equivalents, 100 mM KCl, 10 mM Li cacodylate, pH 7.3, ligand 2 μM
Method: Next, emission titrations were carried out with the emissive Pt^II compounds M2 and D3–8 and G4/duplex DNA to obtain association constants. Both Na^+ and K^+ stabilized monomeric and dimeric G4 DNA were investigated. Additionally, titrations were carried out with CT-DNA to evaluate the selectivity for G4 versus duplex DNA. Figure 5 summarizes the obtained results (see Figures S24–S37 and Table S2 for a full set of titration data). First discussed are the experiments conducted in Na^+ buffer, in which the G4 topology formed is antiparallel.[41] […] As discussed previously, this could potentially be caused by a “sandwiched” binding mode in which the metal-salphen complex sits between two G-quadruplex units. For dimeric metal-salphen complexes D3–8, however, there are several differences when compared to the CD melting studies. […] Upon increasing the linker length to a two-amino-acid sequence (RR and KK for compounds D4 and D5, respectively), larger Ka values were obtained with minimal change to the pattern of selectivity. […] Increasing the linker length to an eight-amino-acid sequence (RRRRRRRR) led to a similar stabilization of G2T6, while G1 stabilization increased. […]
as §3, with “Prior to use, the DNA stock solutions were annealed by heating at 95 °C for 5 min and then cooling to room temperature overnight.” left out
Experiments were carried out using a BMG Clariostar Microplate reader with Greiner Bio-One half-volume (100 μL/well) plates. Excitation was carried out at 440 nm and recorded from 500 to 700 nm in addition to a matrix scan at 590 nm. […]
Fluorescence response (y) was fitted against DNA concentration (x); R is the machine response, K is the association constant of ligand and DNA, L is the concentration of ligand, and n is the number of binding sites per DNA. […]

| Compound | ΔTm G1 (Na+) [1] | ΔTm G2T1 (Na+) [2] | ΔTm G2T6 (Na+) [3] | Association constant G1 (K+), mean [4] | Association constant G2T1 (K+), mean [5] | Association constant G2T6 (K+), mean [6] | Association constant G1 (Na+), mean [7] | Association constant G2T1 (Na+), mean [8] | Association constant G2T6 (Na+), mean [9] | Ka for duplex DNA [10] | fold reduction in duplex DNA binding ([10]; compared with monomeric complex M2) | fold increase in stabilization of G2T1 ([2]; ΔTm of D7 relative to D4) | fold increase in stabilization of G2T6 ([3]; ΔTm of D7 relative to D3) |
| --- | --- | --- | --- | --- | --- | --- | --- | --- | --- | --- | --- | --- | --- |
| C[N+](C)(C)CCOc1ccc2c(c1)[O][Pt][O]c1cc(OCC[N+](C)(C)C)ccc1C=Nc1cc(C(=O)NCc3cn(CCOCCn4cc(CNC(=O)c5ccc6c(c5)N=Cc5ccc(OCC[N+](C)(C)C)cc5[O][Pt][O]c5cc(OCC[N+](C)(C)C)ccc5C=N6)nn4)nn3)ccc1N=C2 [Compound D3] | 3.02 °C and 3.0 °C | 15.29 °C | 6.43 °C and 6.4 °C | 0.17 | 0.13 | 0.16 | 0.17 | 0.24 | 0.19 | 5.0 × 10^3 M^–1 | 10 fold |  |  |
| C[N+](C)(C)CCOc1ccc2c(c1)[O][Ni][O]c1cc(OCC[N+](C)(C)C)ccc1C=Nc1ccccc1N=C2 [Compound M1, reference compound] | 12.26 °C | 16.58 °C and 16 °C | 18.77 °C |  |  |  |  |  |  |  |  |  |  |
| C[N+](C)(C)CCOc1ccc2c(c1)[O][Pt][O]c1cc(OCC[N+](C)(C)C)ccc1C=Nc1ccccc1N=C2 [Compound M2, reference compound] | 12.72 °C | 21.67 °C and 21 °C | 19.55 °C and 19 °C | 2.00 | 0.80 | 1.44 | 1.70 | 1.70 | 2.93 | 7.31 × 10^4 M^–1 |  |  |  |
| RKKR [Compound D7] | 2.6 °C | 16.33 °C and 16.3 °C | 13.81 °C and 13.8 °C | 0.39 | 0.18 | 0.42 | 0.21 | 0.36 | 0.69 |  |  | 1.1 fold | 2.1 fold |
| RRRR [Compound D6] | 3.49 °C | 14.83 °C | 13.27 °C | 0.28 | 0.18 | 0.52 | 0.07 | 0.29 | 0.99 |  |  |  |  |
